According to US7022484B2, “Methods for treating neuropathological states and neurogenic inflammatory states and methods for identifying compounds useful therein” (Board of Regents, The University of Texas System, priority 2000, dated 2006):

Experiments:
rat arthritis model = test: Paw withdrawal latency (PWL) to radiant heat in rat kaolin/carrageenan knee joint inflammation model; format: in vivo; settings: spinal microdialysis pre-treatment; 4 hours after induction of arthritis
Description: All studies followed the guidelines of the Institute Animal Care and Use Committee, in accordance with the guidelines of the National Institutes of Health. All animals were hosted in a room with a constant ambient temperature of 22° C. and 12 hour light/dark cycle with free access to food and water. Eighty-five Sprague-Dawley rats (250–300 grams) total were used in experiments conducted for biochemical, behavioral, and immunocytochemistry studies. […] On Day 2 baseline behavioral testing was followed by infusion of agents for 1.5 hours (pretreatment) prior to induction of knee joint inflammation under brief anesthesia. Behavioral testing was repeated 4 hours after induction of joint inflammation. Anesthetized animals were either transcardially perfused with aldehydes for immunohistochemical studies or fresh, frozen tissues collected for biochemical studies.
A microdialysis fiber was implanted into the spinal dorsal horn of anesthetized rats (sodium pentobarbital, 50 mg/kg) one day prior to the induction of arthritis according to the procedure of Skilling et al. (J. Neurochem., 51:127–132 (1988)), as described in Sluka et al. (Neurosci. Lett., 145:141–144 (1992)). Briefly, a small midline incision was made in the skin over the T12 vertebral level. The vertebrae were cleared of muscle and two 1 millimeter (mm) holes were drilled in the lateral aspect of both sides of the T12 vertebrae to expose the L4 spinal segment. A microdialysis fiber ([…], 45,000 MW cut-off, Hospal, AN69, Hospal Industrie, Meyzieu, France), was passed transversely across the deep dorsal horn and stabilized with dental cement. The microdialysis fiber was then passed through the holes in the vertebrae and transversely through the dorsal horn of the spinal cord. A 2 mm section of the microdialysis fiber lies in the dorsal horn at the level of L3–4 segment. The tubing was coated with epoxy except for a permeable portion passing through the spinal grey matter. The microdialysis fiber was connected to PE20 tubing (Becton Dickinson and Company, San Mateo, Calif.) which was tunneled under the skin to the nape of the neck. Alternatively as a systemic control for drug administration, the microdialysis fiber was implanted only in the subcutaneous tissue over the back muscle and tunneled to the neck. Artificial cerebrospinal fluid (aCSF) was made as described by Sorkin et al. (J. Neurosci. Methods, 23, 131–138 (1988)) and was infused (5 microliters/minute) for 1.5 hours and then the tube was heat-sealed for use on the following day.
Dose response curves were generated for Genistein with animals receiving Genistein spinally at concentration of 0.2 mM (n=3), 0.5 mM (n=3), 1 mM (n=9), and 2 mM (n=3). Animals received Lavendustin A or B spinally at concentrations of 0.1 mM (n=3), 0.5 mM (n=3), and 1 mM (n=5) as a positive and negative control for Genistein. […] Daidzein was tested at a dose of 1 mM (n=3). […] Eight additional animals received the vehicle, 50% DMSO in aCSF, as a control.
An acute inflammatory response restricted to the knee joint can be induced by the injection of 3% kaolin and 3% carrageenan (in sterile saline; 0.1 ml; pH 7.4) into the joint cavity while the animal is briefly anesthetized with sodium methohexital (Brevital, 60 mg/kg, i.p.). Kaolin and carrageenan were obtained from Fisher Scientific, St. Louis, Mo. The knee joint is flexed manually until the rat awakes (approximately 5–10 minutes). In this arthritis model in the awake rat, localized joint swelling, as well as limping and guarding of the limb, are well developed at 4 hours (Sluka et al., Pain, 59, 95–100 (1994)) when behavioral testing begins.
Fifty-five rats were used for behavioral studies. Four hours after induction of the arthritis, the joint is swollen and increased withdrawal responses to radiant heat and spontaneous guarding of the limb were noted. The increased responsiveness to noxious stimuli indicates the presence of secondary hyperalgesia. […]

[1] = system: protein tyrosine kinase (PTK); settings: cited from earlier work
NMDA currents = settings: patch clamp studies; cited from earlier work
NR1 subunit [2] = test: Immunocytochemistry of NR1 translocation in neuroblastoma clonal line SHSY5Y; format: cell-based, human; settings: neuroblastoma clonal cell model
NR1 subunit [3] = test: Immunocytochemistry of NR1 translocation in synovial clonal line SW982; format: cell-based, human; settings: synovial clonal cell model
Description: (§1) The cultured cell lines used in these studies were the human neuroblastoma clonal line, SHSY5Y, and the human synovial sarcoma clonal line, SW982, both available through the American Tissue Type Culture Collection (item number CRL 2266 and HTB-93, respectively). Cells were grown in Dulbecco's Modification of Eagles Medium (DMEM) without L-glutamine, with 4.5 grams/Liter glucose, and with 10% bovine fetal serum in a tissue culture incubator at 37° C. in a gaseous mixture of O2/CO2. Cells were routinely split as necessary to maintain proper cell density. Cells were removed from plates by adding TRYPSIN/EDTA in Hank's Balanced Salt solution. After cell counts, approximately 10,000 cells were plated per well in a culture dish. For experiments, the cells were plated into 35 mm Petri dishes or 6- or 24-well plates as needed.
For immunocytochemistry experiments and some western blot experiments, SW982 cells were exposed to glutamate (1 μM to 10 μM), or glutamate analog NMDA (or related glutamate compound)(5 μM) and Genistein (10 mM). At various timepoints of exposure, including 4, 12, and 24 hours, cells were collected for Western blot measurement of NR1 or fixed with aldehydes and stained to visualize the location of glutamate receptor subunit NR1 using a specific antibody directed to either the C-terminus or the N-terminus of the NR1 protein. […]

NR1 subunit [4] = test: Western blot of NR1 in cytosolic and nuclear extracts of SW982 cells; format: cell-based, human; settings: 12 hours, increasing concentrations of NMDA
Description: as §1, with “needed. […]” for “needed.”
Western blot analysis was used to measure NR1 in both nuclear and cytosolic or total protein extracts using established methods (Kaufmann et al., J. Neurochem., 76, 1099–1108 (2001)). […] After three washes with Tris-buffered saline, immunoreactive bands were detected by a chemiluminescent Western blot detection kit (Amersham, Buckingamshire, UK, Catalog Number RPN2106) according to the manufacturer's instructions.

Row | Structure (SMILES) | development of secondary hyperalgesia (rat arthritis model) | PTK inhibitory activity [1] | effect on NMDA currents (NMDA currents) | NR translocation to the nucleus (NR1 subunit [2]) | NR translocation to the nucleus (NR1 subunit [3]) | NR1 in the cytosol (NR1 subunit [4]) | NR1 in the nuclear compartment (NR1 subunit [4])
1 | O=c1c(-c2ccc(O)cc2)coc2cc(O)ccc12 [Daidzein] | ineffective in altering the nociceptive outcome of knee joint inflammation | lacks PTK inhibitory activity | has no effect on NMDA currents | – | – | – | –
2 | CN[C@H](CC(=O)O)C(=O)O [NMDA, N-methyl-D-aspartate] | – | – | – | replicated the visualization of NR translocation to the nucleus | replicated the visualization of NR translocation to the nucleus | dose-dependent reduction of NR1 in the cytosol | appearance of NR1 in the nuclear compartment
